Results: ChEMBL document CHEMBL1140522, “Peptidomimetic inhibitors of farnesyltransferase with high in vitro activity and significant cellular potency” (Bioorg Med Chem Lett, 2007)
Activity calls are given as the source filed them. The calls are words filed in the database; no cut-off is given here.

How the values were obtained:
[1] = Antiproliferative effect on human aortic smooth muscle cells; format: functional
[2] = Inhibition of farnesyl transferase; parameters: species or system Homo sapiens
Homo sapiens [3] = species on record: Homo sapiens; experiment: Effect on FTase mediated Ras farnesylation in human aortic smooth muscle cells at 2 uM after 72 hrs by Western blot analysis
Homo sapiens [4] = species on record: Homo sapiens; experiment: Effect on FTase mediated Ras farnesylation in human aortic smooth muscle cells at 250 uM after 72 hrs by Western blot analysis

Structure (SMILES)	IC50 [2] [µM]	further results
COc1ccccc1-c1cc(OC[C@H]2COc3ncccc3O2)ccc1C(=O)N[C@H](CCSC)C(=O)O	> 1000	
COc1ccccc1-c1cc(OC[C@H]2COc3ncccc3O2)ccc1C(=O)N[C@@H](CCSC)C(=O)O	0.053	
CCC(C)(C)C(=O)O[C@H]1C[C@@H](C)C=C2C=C[C@H](C)[C@H](CC[C@@H]3C[C@@H](O)CC(=O)O3)[C@H]21		Activity (Homo sapiens [3]): Active
CSCC[C@H](NCc1cccc(NC(=O)C[C@@H]2COc3ncccc3O2)c1-c1ccccc1C)C(=O)O (mixture of isomers)	16	
COc1ccccc1-c1c(CN[C@@H](CCSC)C(=O)O)cccc1NC(=O)C[C@H]1COc2ncccc2O1	302	
CSCC[C@H](NCc1cccc(NC(=O)C[C@H]2COc3ncccc3O2)c1-c1ccccc1C)C(=O)O	12	
COc1ccccc1-c1c(CN[C@H](CCSC)C(=O)O)cccc1NC(=O)C[C@H]1COc2ncccc2O1 (mixture of isomers)	843	
CSCC[C@@H](NCc1cccc(NC(=O)C[C@@H]2COc3ncccc3O2)c1-c1ccccc1C)C(=O)O	> 1000	
COc1ccccc1-c1c(CN[C@@H](CCSC)C(=O)O)cccc1NC(=O)C[C@@H]1COc2ncccc2O1 (mixture of isomers)	151	
COc1ccccc1-c1c(CN[C@H](CCSC)C(=O)O)cccc1NC(=O)C[C@@H]1COc2ncccc2O1	> 1000	
CSCC[C@@H](NCc1cccc(NC(=O)C[C@H]2COc3ncccc3O2)c1-c1ccccc1C)C(=O)O (mixture of isomers)	> 1000	

Further lines, with some results ahead:

IC50 [2] [µM]	Structure (SMILES)	further results
0.05	CSCC[C@H](NC(=O)c1ccc(OC[C@H]2COc3ncccc3O2)cc1-c1ccccc1C)C(=O)O	IC50 [1]: 158 µM
0.055	COc1ccccc1-c1cc(OC[C@@H]2COc3ncccc3O2)ccc1C(=O)N[C@@H](CCSC)C(=O)O (mixture of isomers)	
0.112	COc1ccccc1-c1cc(OC[C@@H]2COc3ncccc3O2)ccc1C(=O)N[C@H](CCSC)C(=O)O	
0.075	CSCC[C@@H](NC(=O)c1ccc(OC[C@H]2COc3ncccc3O2)cc1-c1ccccc1C)C(=O)O	IC50 [1]: 238 µM
0.053	CSCC[C@@H](NC(=O)c1ccc(OC[C@@H]2COc3ncccc3O2)cc1-c1ccccc1C)C(=O)O	IC50 [1]: 16.8 µM; Activity (Homo sapiens [4]): Active
0.045	CSCC[C@H](NC(=O)c1ccc(OC[C@@H]2COc3ncccc3O2)cc1-c1ccccc1C)C(=O)O	IC50 [1]: 58.8 µM; Activity (Homo sapiens [4]): Active
